Laboratory results as given in patent US12180207B2 (ARRAY BIOPHARMA INC., priority 2018, dated 2024).

Legend:
[1] = target: HEK-293 cells transfected with dox-inducible human wild type FGFR3 (Homo sapiens (Human), UniProt P22607); test: FGFR3 pERK cell assay; assay type: cell-based; settings: HEK-293 dox-inducible FGFR3, 1 hour compound, 100 ng/ml FGF-acidic; maximum concentration 5 μM
Method in brief: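 Doxycycline-induced cells preincubated 1 h at 37 °C with compound (1:3 dilutions, top 5 μM final), then stimulated 5 min with 100 ng/ml FGF-acidic. Lysate phospho-ERK1/2 measured by MSD sandwich assay; IC50 at 50 POC from 4-parameter fit, normalised to no-compound and control-compound wells.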

dephosphorylated FGFR2 = dephosphorylated FGFR2 (Homo sapiens (Human), UniProt P21802); test: FGFR enzyme binding assay (HTRF tracer displacement), FGFR2; settings: 5 nM dephosphorylated FGFR2, average of multiple determinations if made
Method in brief: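 Kinase and tracer were incubated with compound for 60 minutes at 22° C. Tracer displacement was then measured by HTRF, and results were expressed as POC with 1 μM control inhibitor defining full displacement.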

[2] = target: HEK-293 cells transfected with dox-inducible human wild type FGFR2 (Homo sapiens (Human), UniProt P21802); test: FGFR2 pFGFR cell assay (ELISA); assay type: cell-based; settings: HEK-293 dox-inducible FGFR2, 1 hour compound, 30 ng/ml FGF-acidic
Method: FGFR2 pFGFR Cell Assay: • HEK-293 cells transfected with dox-inducible human wild type FGFR2 (SEQ ID NO: 3) were plated in a collagen or poly-D-lysine coated 96 well flat bottom plates at 4×10^5 cells/well in complete DMEM medium containing 10% FBS and 1 μg/ml doxycycline and allowed to attach for 24 h at 37° C., 5% CO2. Cells were treated with compound using 1:3 serial dilutions with a maximum final concentration of 5 μM. Compound was incubated on cells for 1 hour at 37° C., 5% CO2. Cells were then stimulated with a final concentration of 30 ng/ml human FGF-acidic (R&D Systems Cat number 232-FA/CF) for 5 minutes at 37° C., 5% CO2. Medium was removed and cells were lysed with lysis buffer containing phosphatase and protease inhibitors. Phospho FGFR2 was measured by ELISA (R&D Systems cat. no. DYC684). The ELISA captures total FGFR2 and detects total phospho tyrosine. Optical density was measured for each well using a Versamax reader at a wavelength of 450 nm. 100 POC was determined using no test compounds and 0 POC was determined using a control compound. The POC values were fit to a 4-parameter logistic curve as a function of the concentration of the compound, and the IC50 value is the point where the curve crosses 50 POC.

HEK-293 cells transfected with dox-inducible human wild type FGFR2, sequence (P21802 22-821): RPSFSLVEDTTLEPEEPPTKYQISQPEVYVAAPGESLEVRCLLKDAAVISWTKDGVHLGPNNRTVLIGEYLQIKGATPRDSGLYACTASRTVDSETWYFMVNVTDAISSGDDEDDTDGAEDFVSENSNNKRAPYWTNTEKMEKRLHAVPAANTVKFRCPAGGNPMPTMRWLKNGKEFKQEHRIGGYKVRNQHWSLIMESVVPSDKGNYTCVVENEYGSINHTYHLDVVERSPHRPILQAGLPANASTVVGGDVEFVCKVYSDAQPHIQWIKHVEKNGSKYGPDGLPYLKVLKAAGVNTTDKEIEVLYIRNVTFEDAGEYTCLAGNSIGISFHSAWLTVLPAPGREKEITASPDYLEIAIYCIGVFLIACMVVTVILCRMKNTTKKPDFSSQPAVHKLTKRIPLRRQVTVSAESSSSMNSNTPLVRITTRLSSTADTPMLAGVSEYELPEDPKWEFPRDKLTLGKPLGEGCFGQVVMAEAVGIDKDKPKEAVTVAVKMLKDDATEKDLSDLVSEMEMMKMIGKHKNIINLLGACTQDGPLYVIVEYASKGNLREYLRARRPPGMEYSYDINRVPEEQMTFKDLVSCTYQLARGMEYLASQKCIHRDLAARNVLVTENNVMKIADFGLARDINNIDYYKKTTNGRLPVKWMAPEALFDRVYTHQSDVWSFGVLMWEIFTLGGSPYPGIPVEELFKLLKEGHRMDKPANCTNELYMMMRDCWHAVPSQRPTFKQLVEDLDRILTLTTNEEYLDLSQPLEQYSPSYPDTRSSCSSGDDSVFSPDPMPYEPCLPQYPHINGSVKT
dephosphorylated FGFR2, sequence (P21802 22-821): as above
HEK-293 cells transfected with dox-inducible human wild type FGFR3, sequence (P22607 23-806): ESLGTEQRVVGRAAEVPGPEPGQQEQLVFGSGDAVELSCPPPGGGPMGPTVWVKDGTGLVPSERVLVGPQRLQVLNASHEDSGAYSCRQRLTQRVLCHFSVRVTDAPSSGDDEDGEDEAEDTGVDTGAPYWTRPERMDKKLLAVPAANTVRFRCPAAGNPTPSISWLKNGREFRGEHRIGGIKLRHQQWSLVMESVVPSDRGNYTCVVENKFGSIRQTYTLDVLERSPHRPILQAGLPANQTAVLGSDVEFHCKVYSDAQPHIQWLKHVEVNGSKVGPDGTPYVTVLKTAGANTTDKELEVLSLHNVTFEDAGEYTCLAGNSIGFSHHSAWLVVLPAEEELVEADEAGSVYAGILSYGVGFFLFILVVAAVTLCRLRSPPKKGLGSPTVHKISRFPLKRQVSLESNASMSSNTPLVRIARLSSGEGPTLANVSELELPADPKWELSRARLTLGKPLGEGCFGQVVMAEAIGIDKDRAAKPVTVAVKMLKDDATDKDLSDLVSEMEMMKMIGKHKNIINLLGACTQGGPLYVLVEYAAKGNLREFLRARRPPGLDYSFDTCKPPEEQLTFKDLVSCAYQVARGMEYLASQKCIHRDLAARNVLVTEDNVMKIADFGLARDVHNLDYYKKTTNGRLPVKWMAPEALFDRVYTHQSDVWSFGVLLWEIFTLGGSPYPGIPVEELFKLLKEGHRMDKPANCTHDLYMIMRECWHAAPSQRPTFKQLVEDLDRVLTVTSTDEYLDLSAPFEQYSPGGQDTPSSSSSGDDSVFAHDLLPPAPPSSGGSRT

Row | Compound | IC50 [1] [nM] | IC50 (dephosphorylated FGFR2) [nM] | IC50 [2] [nM]
1 | C=CC(=O)N1C2CC1CN(C(=O)N1CCC(n3cc(-c4cc(OC)c5c(C#N)cnn5c4)cn3)CC1)C2 [Example 1, 6-(1-(1-(6-acryloyl-3,6-diazabicyclo[3.1.1]heptane-3-carbonyl)piperidin-4-yl)-1H-pyrazol-4-yl)-4-methoxypyrazolo[1,5-a]pyridine-3-carbonitrile] | 86 |  | 
2 | C=CC(=O)N1C2COCC1CN(C(=O)N1CCC(n3cc(-c4cc(OC)c5c(C#N)cnn5c4)cn3)CC1)C2 [Example 3, 6-(1-(1-(9-acryloyl-3-oxa-7,9-diazabicyclo[3.3.1]nonane-7-carbonyl)piperidin-4-yl)-1H-pyrazol-4-yl)-4-methoxypyrazolo[1,5-a]pyridine-3-carbonitrile] | 108 |  | 
3 | C=CC(=O)N1CCC(C#N)(C(=O)N2CCC(n3cc(-c4cc(OC)c5c(C#N)cnn5c4)cn3)CC2)C1 (centres unmarked) [Example 31, 6-(1-(1-(1-acryloyl-3-cyanopyrrolidine-3-carbonyl)piperidin-4-yl)-1H-pyrazol-4-yl)-4-methoxypyrazolo[1,5-a]pyridine-3-carbonitrile] | 26 |  | 
4 | C=CC(=O)N1CC(C(=O)N2CCC(n3cc(-c4cc(OC)c5c(C#N)cnn5c4)cn3)CC2)C1 [Example 36, 6-(1-(1-(1-acryloylazetidine-3-carbonyl)piperidin-4-yl)-1H-pyrazol-4-yl)-4-methoxypyrazolo[1,5-a]pyridine-3-carbonitrile] | 43 |  | 
5 | C=CC(=O)N1CC(F)(C(=O)N2CCC(n3cc(-c4cc(OC)c5c(C#N)cnn5c4)cn3)CC2)C1 [Example 37, 6-(1-(1-(1-acryloyl-3-fluoroazetidine-3-carbonyl)piperidin-4-yl)-1H-pyrazol-4-yl)-4-methoxypyrazolo[1,5-a]pyridine-3-carbonitrile] | 8 | 44 | 
6 | C=CC(=O)N1CC(C#N)(C(=O)N2CCC(n3cc(-c4cc(OC)c5c(C#N)cnn5c4)cn3)CC2)C1 [Example 39, 6-(1-(1-(1-acryloyl-3-cyanoazetidine-3-carbonyl)piperidin-4-yl)-1H-pyrazol-4-yl)-4-methoxypyrazolo[1,5-a]pyridine-3-carbonitrile] | 8 |  | 
7 | C=CC(=O)N1CC(OC)(C(=O)N2CCC(n3cc(-c4cc(OC)c5c(C#N)cnn5c4)cn3)CC2)C1 [Example 41, 6-(1-(1-(1-acryloyl-3-methoxyazetidine-3-carbonyl)piperidin-4-yl)-1H-pyrazol-4-yl)-4-methoxypyrazolo[1,5-a]pyridine-3-carbonitrile] | 12 |  | 
8 | C=CC(=O)N1CC(C(=O)N2CCC(n3cc(-c4cc(OC)c5c(C#N)cnn5c4)cn3)CC2)C1C (centres unmarked) [Example 42, 6-(1-(1-(1-acryloyl-2-methylazetidine-3-carbonyl)piperidin-4-yl)-1H-pyrazol-4-yl)-4-methoxypyrazolo[1,5-a]pyridine-3-carbonitrile] | 77 |  | 
9 | C=CC(=O)N1CC(C(=O)N2CCC(n3cc(-c4cc(OC)c5c(C#N)cnn5c4)cn3)CC2)C1(C)C (centres unmarked) [Example 43, 6-(1-(1-(1-acryloyl-2,2-dimethylazetidine-3-carbonyl)piperidin-4-yl)-1H-pyrazol-4-yl)-4-methoxypyrazolo[1,5-a]pyridine-3-carbonitrile] | 90 |  | 79
10 | C=CC(=O)N1CC(C(=O)N2C3CCC2CN(c2ccc(-c4cc(OC)c5c(C#N)cnn5c4)cn2)C3)C1 [Example 50, 6-(6-(8-(1-acryloylazetidine-3-carbonyl)-3,8-diazabicyclo[3.2.1]octan-3-yl)pyridin-3-yl)-4-methoxypyrazolo[1,5-a]pyridine-3-carbonitrile] | 25 | 14 | 178
11 | C=CC(=O)N1CC(C(=O)N2CC3CCC(C2)N3c2ccc(-c3cc(OC)c4c(C#N)cnn4c3)cn2)C1 [Example 51, 6-(6-(3-(1-acryloylazetidine-3-carbonyl)-3,8-diazabicyclo[3.2.1]octan-8-yl)pyridin-3-yl)-4-methoxypyrazolo[1,5-a]pyridine-3-carbonitrile] | 61 | 38 | 433
12 | C=CC(=O)N1CC(C(=O)N2C3CC2CN(c2ccc(-c4cc(OC)c5c(C#N)cnn5c4)cn2)C3)C1 [Example 52, 6-(6-(6-(1-acryloylazetidine-3-carbonyl)-3,6-diazabicyclo[3.1.1]heptan-3-yl)pyridin-3-yl)-4-methoxypyrazolo[1,5-a]pyridine-3-carbonitrile] | 262 | 32 | 766
13 | C=CC(=O)Nc1ccc(C(=O)N2CC[C@@H](n3cc(-c4cc(OC)c5c(C#N)cnn5c4)cn3)C2)cc1 [Example 55, (R)-N-(4-(3-(4-(3-cyano-4-methoxypyrazolo[1,5-a]pyridin-6-yl)-1H-pyrazol-1-yl)pyrrolidine-1-carbonyl)phenyl)acrylamide] | 71 |  | 
14 | C=CC(=O)N1CCC(C(=O)N2CCC(n3ncc(-c4cc(OC)c5c(C#N)cnn5c4)c3C)CC2)CC1 [Example 82, 6-(1-(1-(1-acryloylpiperidine-4-carbonyl)piperidin-4-yl)-5-methyl-1H-pyrazol-4-yl)-4-methoxypyrazolo[1,5-a]pyridine-3-carbonitrile] | 853 |  | 
15 | C=CC(=O)N1CC[C@@H](C(=O)N2CCC(n3ncc(-c4cc(OC)c5c(C#N)cnn5c4)c3C)CC2)C1 [Example 83, (R)-6-(1-(1-(1-acryloylpyrrolidine-3-carbonyl)piperidin-4-yl)-5-methyl-1H-pyrazol-4-yl)-4-methoxypyrazolo[1,5-a]pyridine-3-carbonitrile] | 549 | 17 | 
16 | C=CC(=O)N1CC(C(=O)N2CCC(n3ncc(-c4cc(OC)c5c(C#N)cnn5c4)c3C)CC2)C1 [Example 84, 6-(1-(1-(1-acryloylazetidine-3-carbonyl)piperidin-4-yl)-5-methyl-1H-pyrazol-4-yl)-4-methoxypyrazolo[1,5-a]pyridine-3-carbonitrile] | 108 | 21 | 
17 | C=CC(=O)N1CC(F)(C(=O)N2CCC(n3ncc(-c4cc(OC)c5c(C#N)cnn5c4)c3C)CC2)C1 [Example 85, 6-(1-(1-(1-acryloyl-3-fluoroazetidine-3-carbonyl)piperidin-4-yl)-5-methyl-1H-pyrazol-4-yl)-4-methoxypyrazolo[1,5-a]pyridine-3-carbonitrile] | 19 | 36 | 61
18 | C=CC(=O)N1CC(C)(C(=O)N2CCC(n3ncc(-c4cc(OC)c5c(C#N)cnn5c4)c3C)CC2)C1 [Example 86, 6-(1-(1-(1-acryloyl-3-methylazetidine-3-carbonyl)piperidin-4-yl)-5-methyl-1H-pyrazol-4-yl)-4-methoxypyrazolo[1,5-a]pyridine-3-carbonitrile] | 159 | 12 | 
19 | C=CC(=O)N1CC(C(=O)N2CCC(n3ncc(-c4cc(OC)c5c(C#N)cnn5c4)c3C)CC2)C1(C)C (centres unmarked) [Example 87, 6-(1-(1-(1-acryloyl-2,2-dimethylazetidine-3-carbonyl)piperidin-4-yl)-5-methyl-1H-pyrazol-4-yl)-4-methoxypyrazolo[1,5-a]pyridine-3-carbonitrile] | 520 | 51 | 
20 | C=CC(=O)N1CC(OC)(C(=O)N2CCC(n3ncc(-c4cc(OC)c5c(C#N)cnn5c4)c3C)CC2)C1 [Example 88, 6-(1-(1-(1-acryloyl-3-methoxyazetidine-3-carbonyl)piperidin-4-yl)-5-methyl-1H-pyrazol-4-yl)-4-methoxypyrazolo[1,5-a]pyridine-3-carbonitrile] | 34 | 12 | 143
21 | C=CC(=O)N1CC(CN2CC(n3ncc(-c4cc(OC)c5c(C#N)cnn5c4)c3C)C2)C1 [Example 92] | 205 |  | 
22 | C=CC(=O)N1CC(C)(CN2CC(n3ncc(-c4cc(OC)c5c(C#N)cnn5c4)c3C)C2)C1 [Example 93, 6-(1-(1-((1-acryloyl-3-methylazetidin-3-yl)methyl)azetidin-3-yl)-5-methyl-1H-pyrazol-4-yl)-4-methoxypyrazolo[1,5-a]pyridine-3-carbonitrile] | 174 |  | 
23 | C=CC(=O)N1CC(C(=O)N2CCC(n3cc(-c4cc(OC)c5c(C#N)cnn5c4)c(C)n3)CC2)C1 [Example 94, 6-(1-(1-(1-acryloylazetidine-3-carbonyl)piperidin-4-yl)-3-methyl-1H-pyrazol-4-yl)-4-methoxypyrazolo[1,5-a]pyridine-3-carbonitrile] | 450 |  | 
24 | C=CS(=O)(=O)Nc1cccc(C(=O)N2CCC(n3cc(-c4cc(OC)c5c(C#N)cnn5c4)cn3)CC2)c1 [Example 188, N-(3-(4-(4-(3-cyano-4-methoxypyrazolo[1,5-a]pyridin-6-yl)-1H-pyrazol-1-yl)piperidine-1-carbonyl)phenyl)eth-enesulfonamide] | 19 |  | 160
